Our source for the MIC, Ki and tolerability in mice values is paper PMC12189828, “Substitution of Proline Residues by 4-Fluoro-L-Proline Affects the Mechanism of the Proline-Rich Antimicrobial Peptide Api137” (Antibiotics, 2025).

SMILES strings stand for the structures. Values after ≈ are worked out from the molar mass of the structure shown. Where a SMILES comes first, the peptide text is derived from it. The star is where a group is joined. Orn(α-tetramethylguanidino) = CN(C)C(=N[C@@H](CCCN)C(=O)*)N(C)C

One series relates to E. coli RN31. As to the kind of experiment: Minimum inhibitory concentration (MIC) against E. coli RN31. It is filed as cell-based, Escherichia coli. The note with it: E. coli RN31, 33% TSB, 37 °C overnight (~16 h), 7.5 × 10^6 bacteria/mL; two independent experiments with two replicates each (n = 4). How it is done: Minimum inhibitory concentrations were determined for E. coli RN31 grown in 33% TSB (37 °C, 200 rpm) with a starting OD600 of 0.05. After four hours, the cell count was adjusted to 1.5 × 10^7 bacteria/mL. In a transparent 96-well plate, the peptides were diluted in a two-fold dilution series in 33% TSB over 10 dilution steps, and E. coli was added to obtain a final cell count of 7.5 × 10^6 bacteria/mL and incubated at 37 °C overnight. OD600 was determined using a PARADIGM^TM microplate reader (Beckman Coulter, Salzburg, Austria) before and after cultivation. The MIC was defined as the lowest peptide concentration preventing visible bacterial growth.

In series [1] the target is 70S ribosomes isolated from E. coli BW25113 (Escherichia coli, UniProt P60723+P61175). As to the kind of experiment: Fluorescence polarization, competition with cf-Api137 for 70S ribosome binding (Ki). The note with it: crude 70S ribosome extract, fluorescence polarization, 28 °C, 90 min + 90 min; two independent experiments with two replicates each (n = 4); Table 2. As to the method: E. coli BW25113 were cultivated in LB medium and harvested by centrifugation (5000× g, 15 min, 4 °C) at an OD600 of 3–4. Cell pellets were washed in ribosome preparation buffer (20 mmol/L HEPES-KOH, 6 mmol/L MgCl2, 30 mmol/L NH4Cl, pH 7.6, 4 °C), centrifuged (4100× g, 30 min, 4 °C), and resuspended in ribosome preparation buffer (0.5 g/L) containing freshly added 2-mercaptoethanol (4 mmol/L) and lysozyme. Cells were incubated on ice for 30 min and disrupted in six cycles using a FastPrep-24^TM 5G instrument (MP Biomedicals, Eschwege, Germany) with the BigPrep 50 mL setting (40 s, 4.0 m/s), interrupted by one minute of incubation on ice between the cycles. After a centrifugation step (1620× g, 5 min, 4 °C), DNase I (5 U/mL) was added to the supernatant and incubated for 1 h on ice. Cell debris was removed by centrifugation at 16,000× g (30 min, 4 °C) and twice at 32,000× g (60 min, 4 °C). Crude ribosomes were obtained by centrifugation at 165,000× g (17 h, 4 °C). […]
Inhibition constants (Ki) were measured for the 70S ribosome extract using cf-labeled and unlabeled peptides in ribosome preparation buffer. […] Fluorescence polarization was determined on a PARADIGM^TM microplate reader in the top reading position (λex = 485 nm, λem = 535 nm). […] Ki values were calculated as described by Mathias and Jung.
(Fluorescence polarisation rises when a labelled molecule tumbles more slowly, as on binding a larger partner.)

Another series concerns mice. Particulars: cited from earlier work.

For orientation: MIC means the smallest concentration in the dilution series that meets the test's criterion for growth inhibition. Usually Ki stands for a dissociation constant, usually derived from enzyme kinetics or from competition with a known ligand. In the series with E. coli RN31, `CC[C@H](C)[C@H](NC(=O)[C@H](Cc1ccc(O)cc1)NC(=O)[C@@H](NC(=O)[C@@H]1CCCN1C(=O)[C@H](CCCNC(=N)N)NC(=O)[C@H](CC(N)=O)NC(=O)[C@H](CC(N)=O)NC(=O)[C@H](CCCN)N=C(N(C)C)N(C)C)C(C)C)C(=O)N1CCC[C@H]1C(=O)N[C@@H](CCCNC(=N)N)C(=O)N1CCC[C@H]1C(=O)N[C@@H](CCCNC(=N)N)C(=O)N1CCC[C@H]1C(=O)N1CCC[C@H]1C(=O)N[C@@H](Cc1c[nH]cn1)C(=O)N1CCC[C@H]1C(=O)N[C@@H](CCCNC(=N)N)C(=O)N[C@@H](CC(C)C)C(=O)O` [Api137] ({Orn(α-tetramethylguanidino)}-NNRPVYIPRPRPPHPRL-OH; N-terminus and C-terminus assumed) came in with an MIC of 4 µg/mL (≈ 1.75 µM). Besides, in series [1], the inhibition constant (Ki) amounted to 2.6 ± 0.2 nM. For the same molecule, the tolerability in mice entry in the series on mice is “well tolerated”.
